Among the data in BindingDB's records for doi:10.1021/jm00084a013 (Upjohn Laboratories, 1992) are Ki values, retold here.

For orientation: Ki means the dissociation constant of the complex between target and ligand, obtained from inhibition or displacement. A low value points to a stronger hold on the target.

The target of the first assay is 5-hydroxytryptamine receptor 1A (Bos taurus). Kind of assay: Ability to displace [3H]-DPAT from 5-hydroxytryptamine 1A receptor in homogenates of bovine hippocampus.
`CCCN(CCC)C1Cc2cccc3oc(=O)n(c23)C1` (stereo not given) showed a Ki of over 1 µM.
`CCCN(CCC)C1Cc2cccc3nc(SC)n(c23)C1` (stereo not given) came in with a Ki of 0.173 µM.
Still for that read-out and setting: the result for `CCCN(CCC)C1Cc2cccc3ncn(c23)C1` (stereo not given) reads 0.827 µM; that for `O=c1[nH]c2cccc3c2n1CC(N(CC1CC1)CC1CC1)C3` (stereo not given), 0.095 µM; that for `CCCN(CCC)C1Cc2cccc3c2N(C1)C(=O)CN3` (stereo not given), 0.049 µM.
Same read-out and setting: the result for `CCCN(CCC)C1Cc2cccc3c2N(C1)C(=O)CC3` (stereo not given) reads 0.0024 µM; that for `CCCN(CCC)C1Cc2cccc3c2N(C1)C(=O)C3` (stereo not given), 0.108 µM; that for `CCCN(CCC)C1Cc2cccc3c2N(CC3)C1` (stereo not given), 0.013 µM.
The compound `CCCN(CCC)C1Cc2cccc3ccn(c23)C1` (stereo not given) came in with a Ki of 0.252 µM.
Compound `CCCN(CCC)C1Cc2cccc3nc(C)n(c23)C1` (stereo not given) returned a Ki of 4.49 µM.
In turn, `O=c1[nH]c2cccc3c2n1CC(NCC1CC1)C3` (stereo not given) came in with a Ki of 0.084 µM.
On the same count and under the same terms, the result for `CCCN(CCC)C1Cc2cccc3c2N(CCC3)C1` (stereo not given) reads 0.105 µM; that for `CCCN(CCC)C1Cc2cccc3[nH]c(=O)c(=O)n(c23)C1` (stereo not given), over 1 µM.

Molecular target in the next assay: not listed separately
Briefly: Compound was evaluated for its ability to displace [3H]DPAT from 5-HT1A receptor in homogenates of bovine hippocampus.
`CCCN(CCC)C1Cc2cccc3c2n(c(=O)n3C)C1` (stereo not given) had an inhibition constant (Ki) of 0.124 µM.
On the same count and under the same terms, the result for `CCCCNC1Cc2cccc3[nH]c(=O)n(c23)C1` (stereo not given) reads over 1 µM.
